For data set [1], the system named is FGF1 gene (fiblobrast growth factor 1). The experiment in a line: Quantitative real-time PCR of hair growth-related gene FGF1 in HFDPCs. The class given is cell-based, human. The following applies: for FGF1: extracts at a volume of 1/6,000 or 1/10,000 (Production Examples 1 and 6 at non-cytotoxic concentration), D-pinitol and shikimic acid at 1 µM and 10 µM; for expression enhancing effects for FGF1 (in words): summary of Table 5. Set-up: key to FGF1: -: Expression was suppressed.; ±: No significant difference was observed in the expression enhancing effects at at least some of the concentrations.; +: A significant difference with p < 0.05 or more was observed in the expression enhancing effects at all concentrations.; ++: A significant difference with p < 0.01 or more was observed in the expression enhancing effects at all concentrations. How it is done:
(§1) The pine needle extract of Production Example 1 was added to the culture medium for HFDPCs, and the expression of hair growth markers was measured by quantitative real-time PCR. As the hair growth markers, CTNNB1 gene (β-catenin), ALPL gene (alkaline phosphatase), and FGF1 gene (fiblobrast growth factor 1) were examined. It is known that β-catenin induces anagen of the hair cycle and promotes the proliferation of keratinocytes. ALPL is a representative hair growth marker in the hair papilla cells. FGF1 is a marker for morphogenesis of hair follicles. HFDPCs were seeded in a 6-well plate at a concentration of 5 × 10^4 cells/well and incubated at 37°C for 24 hours. Subsequently, the culture medium was removed and replaced with a culture medium containing a pine needle extract at a volume of 1/4,000 and 1/2,000. Furthermore, for a comparison, cells treated with a culture medium to which minoxidil (0.1 µM), an existing therapeutic agent for hair loss, was added, were also prepared. Subsequently, after 48 hours, the cells were washed with cold PBS, and total RNA was extracted using an ISOGEN kit (Nippon Gene Co., Ltd.). Subsequently, the total RNA was quantified using a NanoDrop 2000 spectrophotometer (Thermo Fisher Scientific, Inc.), and quantitative real-time PCR analysis was performed. […] Subsequently, real-time PCR was carried out using a 7500 Fast Real-Time PCR system (Software 1.3.1, Thermo Fisher Scientific, Inc.) and TaqMan probes specific for CTNNB1, ALPL, and FGF1. GAPDH was used as an endogenous control, and the 2^- △△Ct method was applied, to calculate the relative amount of mRNA in comparison with GAPDH. The effect of the pine needle extracts of Production Examples 3 to 6 on the hair growth-related genes was examined by the same method as that used in Experimental Example 6. Furthermore, the same examination was carried out for D-pinitol and shikimic acid. The pine needle extracts of Production Examples 3 to 6 were each added to the culture medium for cells at a volume of 1/6,000 or a volume of 1/10,000. The pine needle extracts of Production Examples 1 and 6 were each added to the culture medium for cells at a concentration at which cytotoxicity was not observed. D-pinitol was added to the culture medium for cells at 1 µM and 10 µM. Shikimic acid was added to the culture medium for cells at 1 µM and 10 µM. In the following Table 5, "CTNNB1", "ALPL", and "FGF1" indicate the evaluation results for the expression enhancing effects of each hair growth-related gene. […]
In general terms: Real-time PCR tracks product formation cycle by cycle.

Data set [2] relates to human primary hair papilla cells (HFDPC). The experiment in a line: Cytotoxicity (MTT cell viability) in hair papilla cells. The class given is cell-based. Set-up: key: -: No cytotoxicity was observed.; ±: The cell viability was reduced by 40% or more at a volume of 1/100.; +: The cell viability was reduced by 10% or more at a volume of 1/10,000.; ++: The cell viability was reduced by 40% or more at a volume of 1/10,000. The following applies: same method as Experimental Example 4. How it is done: The cytotoxicity of the pine needle extract of Production Example 1 was examined. Regarding the cells, human primary hair papilla cells (HFDPC, purchased from PromoCell GmbH), which are mesenchymal cells isolated from the papilla of normal human scalp hair follicles, were used. HFDPCs were seeded on a collagen-coated 96-well plate at a concentration of 5 × 10^4 cells/well and incubated at 37°C in a humidified atmosphere of 5% CO2. As a culture medium, a hair papilla cell growth culture medium to which growth factors (bovine fetal serum, insulin, transferrin, triiodothyronine, bovine pituitary extract, and a cyproterone solution) had been added was used. After 24 hours, the culture medium for the cells was replaced with a culture medium to which a pine needle extract was added at a volume of 0 (control), 1/6,000, 1/5,000, 1/4,000, 1/3,000, 1/2,000, 1/1,000, 1/500, 1/250, or 1/100, and the cells were incubated for 48 hours. […] Specifically, an MTT reagent (5 mg/mL) was added to the cells, the cells were incubated for 8 hours, subsequently 10% sodium dodecyl sulfate (SDS) was added thereto, and the cells were incubated overnight. Thereafter, the absorbance at 570 nm was measured using a microplate reader, and the cell viability was quantified as a proportion (%) of the absorbance with respect to the absorbance of untreated cells. […]

Data set [3] concerns ALPL gene (alkaline phosphatase). The experiment in a line: Quantitative real-time PCR of hair growth-related gene ALPL in HFDPCs. The class given is cell-based, human. Set-up: key to ALPL: -: Expression was suppressed.; ±: No significant difference was observed in the expression enhancing effects at at least some of the concentrations.; +: A significant difference with p < 0.05 or more was observed in the expression enhancing effects at all concentrations.; ++: A significant difference with p < 0.01 or more was observed in the expression enhancing effects at all concentrations. The settings on record: for ALPL: extracts at a volume of 1/6,000 or 1/10,000 (Production Examples 1 and 6 at non-cytotoxic concentration), D-pinitol and shikimic acid at 1 µM and 10 µM; for expression enhancing effects for ALPL (in words): summary of Table 5. As to the method:
as §1

For a further data set, the system named is CTNNB1 gene (β-catenin). The experiment in a line: Quantitative real-time PCR of hair growth-related gene CTNNB1 in HFDPCs. The following applies: for CTNNB1: extracts at a volume of 1/6,000 or 1/10,000 (Production Examples 1 and 6 at non-cytotoxic concentration), D-pinitol and shikimic acid at 1 µM and 10 µM; for expression enhancing effects for CTNNB1 (in words): summary of Table 5. The class given is cell-based, human. Details: key to CTNNB1: -: Expression was suppressed.; ±: No significant difference was observed in the expression enhancing effects at at least some of the concentrations.; +: A significant difference with p < 0.05 or more was observed in the expression enhancing effects at all concentrations.; ++: A significant difference with p < 0.01 or more was observed in the expression enhancing effects at all concentrations. As to the method:
as §1

The nature of data set [4]: Body weight and food intake during 7-day oral administration. The class given is in vivo, ICR mouse. The following applies: 20 mg/kg bupropion oral, daily for 7 days. As to the method:
In the following Table 6, "LPS" indicates lipopolysaccharide. Furthermore, bupropion administered to a positive control group is an antidepressant. The mice in each group were kept for 7 days to be acclimatized, and then a pine needle extract was orally administered daily for 7 days. Thereafter, neuroinflammation was induced in the brain by a single intraperitoneal administration of LPS, and depression was developed. A tail suspension test was performed the day after the administration of LPS. In the tail suspension test, a SMART 3.0 video image behavior analysis device (Panlab S.L.U.) was used. The brain was removed the day after the tail suspension test, and the hippocampus was further collected and used in the experiment that will be described later.

With `CO[C@H]1[C@H](O)[C@@H](O)[C@@H](O)[C@H](O)[C@@H]1O` [D-pinitol], in data set [1], the FGF1 entry is reported as “++” and the “expression enhancing effects for FGF1 (in words)” value is “exhibited expression enhancing effects”. Also, the Cytotoxicity entry in data set [2] was “-”. Further, in data set [3], the ALPL entry was “-” and the “expression enhancing effects for ALPL (in words)” value is recorded as “did not exhibit expression enhancing effects”. Moreover, in the data set with CTNNB1 gene (β-catenin), the CTNNB1 entry was “++” and the “expression enhancing effects for CTNNB1 (in words)” value is “exhibited expression enhancing effects”.

On to `CC(NC(C)(C)C)C(=O)c1cccc(Cl)c1` (stereo not drawn) [bupropion], for which, in data set [4], the “Final body weight” value stood at 35.6 ± 0.7 g, the “Increase in body weight (g / 7 days)” value is on record as 2.9 ± 0.4 g / 7 days and the “Total amount of food intake (g / 7 days)” value worked out at 25.0 ± 1.2 g / 7 days. Besides, the “Initial body weight” value in data set [4] (baseline) was determined as 32.7 ± 0.8 g.

As to `O=C(O)C1=C[C@@H](O)[C@@H](O)[C@H](O)C1` [Shikimic acid], in data set [1], the FGF1 entry was “++” and the “expression enhancing effects for FGF1 (in words)” value is reported as “exhibited expression enhancing effects”. Besides, the Cytotoxicity entry in data set [2] was “-”. Besides, in data set [3], the ALPL entry is given as “±” and the “expression enhancing effects for ALPL (in words)” value was “did not exhibit expression enhancing effects”. In the data set with CTNNB1 gene (β-catenin), the CTNNB1 result was “+” and the “expression enhancing effects for CTNNB1 (in words)” value is on record as “exhibited expression enhancing effects”.
